Data published in US20250002450A1, “CATIONIC STEROID COMPOUNDS, METHOD OF OBTAINING THEREOF, FORMULATIONS COMPRISING THEREOF AND THEIR USES” (UNIVERSIDADE DO PORTO, priority 2021, published 2025).
Converted amounts (≈) assume the structure as drawn. Read-outs that look alike come from different tables or passages of the source.

Experiments:
C. albicans ATCC 10231 = experiment: Potassium ion efflux analysis; type: cell-based, Candida albicans; settings: 5 min
Protocol: In an embodiment, the potassium ion (K^+) efflux analysis was performed as follows ([FIG. 9]). Leakage of potassium ions is a common response to membrane-disrupting agents; therefore, extracellular K^+ was quantified by flame atomic absorption spectrometry, after 5 min of exposure to compound 1 ([FIG. 10]). […] Efflux of potassium was determined by quantification of extracellular K^+ by flame atomic absorption spectrometry. Cell suspensions of C. albicans ATCC 10231 were prepared in the same manner as described for PI influx assay, and test conditions were also the same. After 5 min of exposure, cells were centrifuged for 10 min at 3500 rpm and the supernatants were filtrated using a cellulose acetate syringe filter with a 0.22 µm pore size. Samples were analyzed with a AAnalyst 200 Atomic Absorption Spectrometer (Perkin Elmer). Four independent assays were performed and the data are presented as percentage of control (untreated cells as […] of K^+).

Trichophyton rubrum FF5 = experiment: Antifungal MIC/MLC (broth microdilution); type: cell-based
From the text: (§1) Twenty-three fungal strains were used in this study, including reference strains and clinical isolates of yeasts and filamentous fungi. Yeast strains included reference strains (ATCC—American Type Culture Collection and CECT—Colección Española de Cultivos Tipo) and clinical isolates: C. albicans ATCC 10231, Candida krusei ATCC 6258, C. albicans H37, C. albicans FF172, C. albicans FF176, C. albicans DSY294, C. albicans DSY296, C. glabrata DSY562, C. glabrata DSY565 and Cryptococcus neoformans CECT 1078. Filamentous fungi included Aspergillus fumigatus ATCC 240305, A. fumigatus C111, A. niger ATCC 16404, A. flavus F44, Fusarium solani FF125, F. oxysporum FF115, and dermatophytes Trichophyton rubrum FF5, T. mentagrophytes FF7, Microscoporum canis FF1 and Nannizzia gypsea FF3 (formerly Microsporum gypseum) and a species of genera Mucor, Lichetheimia and Scedosporium. Saprolegnia parasitica CBS 223.65, a reference strain of an oomycete fish pathogen, was also included. All microorganisms were kept in Sabouraud Dextrose Broth (SDB: BioMérieux, Marcy L'Etoile, France) plus glycerol (20%) at −80° C. The strains were kept in Sabouraud Dextrose Agar (SDA: BioMérieux, Marcy L'Etoile, France) slants and were sub-cultured in SDA before each test. S. parasitica was kept in Corn Meal Agar plates (CMA: BBL™ Corn Meal Agar, BD, Le Pont-de-Claix, France) and was sub-cultured in CMA before each experiment. C. albicans H37, was kindly provided by Cidilia Pina Vaz (CHSJ, Porto, Portugal) and C. albicans DSY294, C. albicans DSY296, C. glabrata DSY562, C. glabrata DSY565 were kindly provided by D. Sanglard (University of Lausanne, Switzerland). A stock solution of compound 1 (10 mg/mL), was prepared in dimethyl sulfoxide (DMSO 99%: Alfa Aesar, Kandel, Germany), kept at −20 degrees C., and freshly diluted in the appropriate culture media before each assay. In all experiments, in-test concentrations of DMSO were kept below 2%.
(§2) Antifungal activity was evaluated by determining the MIC of compound 1 by the broth microdilution method, according to CLSI guidelines (reference documents M27-A3 for yeasts and M38-A2 for filamentous fungi). Briefly, cell or spore suspensions were prepared in RPMI-1640 broth medium (Biochrom, Berlin, Germany) buffered with 3-(N-morpholino)propane sulfonic acid (MOPS) (Sigma-Aldrich, St. Louis, MO, USA) (henceforth referred to as RPMI) from fresh cultures of the different strains of fungi. For yeasts, the inoculum was adjusted to 0.5-2.5×10^3 CFU/mL. For filamentous fungi, the inoculum was adjusted to 1-3×10^3 CFU/mL for dermatophytes, and 0.4-5×10^4 CFU/mL for all other strains. […] Sterility and growth controls were included in each assay. The 96-well flat-bottomed untreated polystyrene microtiter plates which were incubated for 48 h at 35° C., with the exception of Lichetheimia spp. which was incubated at 25° C. for 48 h, and the dermatophyte strains, which incubated for 5-7 days at 25° C. […] The minimal lethal concentration (MLC) was determined by spreading 20 μL of culture collected from wells showing no visible growth on SDA plates. The MLC was determined as the lowest concentration showing complete growth inhibition after 48 h at 35 degrees C., 48 h at 25 degrees C.

[1] = tested on: Candida albicans ATCC 10231; experiment: Antifungal MIC/MLC (broth microdilution); type: cell-based
From the text: as §1, §2

Nannizzia gypsea FF3 = experiment: Antifungal MIC/MLC (broth microdilution); type: cell-based
From the text: as §1, §2

Microsporum canis FF1 = experiment: Antifungal MIC/MLC (broth microdilution); type: cell-based
From the text: as §1, §2

SMILES	levels of extracellular K+ vs untreated control (C. albicans ATCC 10231; 128, 64, and 32 μg/mL (2×MIC, MIC, ½×MIC))	MIC (Trichophyton rubrum FF5) [µg/mL]	MLC (Trichophyton rubrum FF5) [µg/mL]	MIC [1] [µg/mL]	MLC [1] [µg/mL]	MIC (Nannizzia gypsea FF3) [µg/mL]	MLC (Nannizzia gypsea FF3) [µg/mL]	MIC (Microsporum canis FF1) [µg/mL]	MLC (Microsporum canis FF1) [µg/mL]	levels of extracellular K+ vs untreated control (C. albicans ATCC 10231; 8 μg/mL)	MIC (Trichophyton rubrum FF5; read-out: MIC) [µg/mL]	MIC ([1]; ATCC10231, read-out: MIC) [µg/mL]	MIC (Nannizzia gypsea FF3; read-out: MIC) [µg/mL]	MIC (Microsporum canis FF1; read-out: MIC) [µg/mL]
C[C@H](CCC(=O)NCCN)[C@H]1CC[C@H]2[C@@H]3CC[C@@H]4C[C@H](O)CC[C@]4(C)[C@H]3C[C@H](O)[C@]12C [Compound 1, (R)—N-(2-aminoethyl)-4-((3R,5R,8R,9S,10S,12S,13R,14S,17R)-3,12-dihydroxy-10,13-dimethylhexadecahydro-1H-cyclopenta[a]phenanthren-17-yl) pentanamida]	significant levels of extracellular K	32 (≈ 73.6 µM)	64 (≈ 147 µM)	64 (≈ 147 µM)	64 (≈ 147 µM)	32 (≈ 73.6 µM)	32 (≈ 73.6 µM)	64 (≈ 147 µM)	128 (≈ 294 µM)					
OC(Cn1cncn1)(Cn1cncn1)c1ccc(F)cc1F [Fluconazole, reference compound]										not	16 (≈ 52.2 µM)	2 (≈ 6.53 µM)	32 (≈ 104 µM)	32 (≈ 104 µM)
